According to a compilation of properties of binary mixtures (doi:10.1016/j.molliq.2020.112816):

Assay: xn = mol fraction of the nth substance listed
Conditions: 101 kPa

NC=O + CCCC[n+]1ccn(C)c1.F[B-](F)(F)F
Conditions	speed of sound [m/s]	viscosity [mPa·s]
293.15 K, x2 = 0.0675	1614.2	4.01
293.15 K, x2 = 0.135	1613.4	4.81
293.15 K, x2 = 0.2054	1611.9	7
293.15 K, x2 = 0.4499	1602.9	24.97
293.15 K, x2 = 0.6639	1593.2	54.2
293.15 K, x2 = 0.7588	1588.7	71.4
293.15 K, x2 = 0.8107	1586.2	81.8
293.15 K, x2 = 0.8626	1583.7	93.3
293.15 K, x2 = 0.9313	1580.3	109.6
298.15 K, x2 = 0	1602.4	3.27
298.15 K, x2 = 0.0675	1603	3.73
298.15 K, x2 = 0.135	1602.3	4.65
298.15 K, x2 = 0.2054	1600.8	6.6
298.15 K, x2 = 0.3629	1595.4	14.43
298.15 K, x2 = 0.4499	1591.8	20.95
298.15 K, x2 = 0.5095	1589.3	26.31
298.15 K, x2 = 0.569	1586.6	32.4
298.15 K, x2 = 0.6639	1582.2	43.6
298.15 K, x2 = 0.8626	1572.7	73.4
298.15 K, x2 = 0.9313	1569.3	85.6
303.15 K, x2 = 0	1590.5	2.918
303.15 K, x2 = 0.0675	1591.4	3.28
303.15 K, x2 = 0.135	1590.9	4.23
303.15 K, x2 = 0.2054	1589.4	5.84
303.15 K, x2 = 0.2758	1587.2	8.24
303.15 K, x2 = 0.3629	1584	12.35
303.15 K, x2 = 0.5095	1578	21.66
303.15 K, x2 = 0.569	1575.3	26.36
303.15 K, x2 = 0.6639	1570.9	35
303.15 K, x2 = 0.7588	1566.5	44.9
308.15 K, x2 = 0	1578.3	2.607
308.15 K, x2 = 0.0675	1579.4	3.049
308.15 K, x2 = 0.135	1579	3.99
308.15 K, x2 = 0.2054	1577.5	5.48
308.15 K, x2 = 0.3629	1572.2	10.72
308.15 K, x2 = 0.5095	1566.2	17.95
308.15 K, x2 = 0.569	1563.6	21.5
308.15 K, x2 = 0.6639	1559.3	27.92
308.15 K, x2 = 0.7588	1554.8	35.3
308.15 K, x2 = 0.8107	1552.3	39.7
308.15 K, x2 = 0.8626	1549.8	44.5
313.15 K, x2 = 0	1565.9	2.328
313.15 K, x2 = 0.0675	1567.3	2.599
313.15 K, x2 = 0.135	1567	3.4
313.15 K, x2 = 0.2758	1563.3	6.21
313.15 K, x2 = 0.5095	1554.2	14.39
313.15 K, x2 = 0.569	1551.6	17.16
313.15 K, x2 = 0.6639	1547.3	22.22
313.15 K, x2 = 0.7588	1542.9	28.02
313.15 K, x2 = 0.8107	1540.4	31.6
313.15 K, x2 = 0.8626	1537.8	35.2
313.15 K, x2 = 0.9313	1534.3	40.4
318.15 K, x2 = 0	1553.1	2.096
318.15 K, x2 = 0.0675	1554.9	2.4
318.15 K, x2 = 0.135	1554.6	2.982
318.15 K, x2 = 0.2054	1553	3.88
318.15 K, x2 = 0.3629	1547.7	7.11
318.15 K, x2 = 0.4499	1544.2	9.72
318.15 K, x2 = 0.5095	1541.8	11.78
318.15 K, x2 = 0.7588	1530.5	23.24
318.15 K, x2 = 0.8107	1528	26.2
318.15 K, x2 = 0.9313	1521.9	33.8

CCCC[n+]1ccn(C)c1.F[B-](F)(F)F + NC=O
x1 = 1
Conditions	speed of sound [m/s]	viscosity [mPa·s]
293.15 K	1576.8	127.6
298.15 K	1565.7	98.9
303.15 K	1554.4	76.3
313.15 K	1530.5	46.2
